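The compound was tested at five concentrations on cells cultured in 96-well plates, with a 48-hour exposure period. TGI is the concentration that stops growth completely.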
Legend:
Test in all cases: NCI tumour cell line growth inhibition, 48 h
[1] = system: SNB-75 CNS
[2] = system: MDA-MB-231 breast
[3] = system: OVCAR-4 ovarian
[4] = system: OVCAR-8 ovarian
[5] = system: T-47D breast
[6] = system: RPMI-8226 leukemia
[7] = system: NCI-H460 lung
[8] = system: U251 CNS
[9] = system: KM12 colon
[10] = system: NCI-H226 lung
[11] = system: HT29 colon
[12] = system: ACHN renal
[13] = system: IGROV1 ovarian
[14] = system: SN12C renal
[15] = system: 786-0 renal
[16] = system: DU-145 prostate
[17] = system: BT-549 breast
[18] = system: A549 NSCLC
[19] = system: SK-MEL-28 melanoma
[20] = system: UACC-257 melanoma
[21] = system: NCI/ADR-RES ovarian
[22] = system: A498 renal
[23] = system: NCI-H23 lung
[24] = system: OVCAR-5 ovarian
[25] = system: SK-OV-3 ovarian
[26] = system: MOLT-4 leukemia
[27] = system: PC-3 prostate
[28] = system: SK-MEL-5 melanoma
[29] = system: UACC-62 melanoma
[30] = system: MCF7 breast
[31] = system: HCT-116 colon
[32] = system: NCI-H522 lung
[33] = system: K-562 leukemia
[34] = system: SR leukemia
[35] = system: CCRF-CEM leukemia
[36] = system: SNB-19 CNS
[37] = system: SF-268 CNS
[38] = system: MDA-MB-435
[39] = system: TK-10 renal
[40] = system: HOP-62 NSCLC
[41] = system: HS 578T breast
[42] = system: SW-620 colon
[43] = system: LOX IMVI melanoma
[44] = system: SF-539 CNS
[45] = system: OVCAR-3 ovarian
[46] = system: SK-MEL-2 melanoma
[47] = system: MDA-N
[48] = system: HL-60(TB) leukemia
[49] = system: COLO 205 colon
[50] = system: SF-295 CNS
[51] = system: EKVX NSCLC
[52] = system: HCT-15 colon
[53] = system: UO-31 renal
[54] = system: M14 melanoma
[55] = system: CAKI-1 renal
[56] = system: HOP-92 NSCLC
[57] = system: RXF 393 renal
[58] = system: HCC-2998 colon

## Cn1c(=O)c2c(ncn2Cc2ccc(O)c([N+](=O)[O-])c2)n(C)c1=O
[1]
  TGI: > 100 µM
[2]
  TGI: > 100 µM
[3]
  TGI: > 100 µM
[4]
  TGI: > 100 µM
[5]
  TGI: > 100 µM
[6]
  TGI: > 100 µM
[7]
  TGI: > 100 µM
[8]
  TGI: > 100 µM
[9]
  TGI: > 100 µM
[10]
  TGI: > 100 µM
[11]
  TGI: > 100 µM
[12]
  TGI: > 100 µM
[13]
  TGI: > 100 µM
[14]
  TGI: > 100 µM
[15]
  TGI: > 100 µM
[16]
  TGI: > 100 µM
[17]
  TGI: > 100 µM
[18]
  TGI: > 100 µM
[19]
  TGI: > 100 µM
[20]
  TGI: > 100 µM
[21]
  TGI: > 100 µM
[22]
  TGI: > 100 µM
[23]
  TGI: > 100 µM
[24]
  TGI: > 100 µM
[25]
  TGI: > 100 µM
[26]
  TGI: > 100 µM
[27]
  TGI: > 100 µM
[28]
  TGI: > 100 µM
[29]
  TGI: > 100 µM
[30]
  TGI: > 100 µM
[31]
  TGI: > 100 µM
[32]
  TGI: > 100 µM
[33]
  TGI: > 100 µM
[34]
  TGI: > 100 µM
[35]
  TGI: > 100 µM
[36]
  TGI: > 100 µM
[37]
  TGI: > 100 µM
[38]
  TGI: > 100 µM
[39]
  TGI: > 100 µM
[40]
  TGI: > 100 µM
[41]
  TGI: > 100 µM
[42]
  TGI: > 100 µM
[43]
  TGI: > 100 µM
[44]
  TGI: > 100 µM
[45]
  TGI: > 100 µM
[46]
  TGI: > 100 µM
[47]
  TGI: > 100 µM
[48]
  TGI: > 100 µM
[49]
  TGI: > 100 µM
[50]
  TGI: > 100 µM
[51]
  TGI: > 100 µM
[52]
  TGI: > 100 µM
[53]
  TGI: > 100 µM
[54]
  TGI: > 100 µM
[55]
  TGI: > 100 µM

## O=C1OC(=O)C2=C1C(c1cccs1)C=C(c1cccnc1)N2c1ccncc1 (stereo unspecified)
[1]
  TGI: 35.8 µM
[2]
  TGI: 39.6 µM
[3]
  TGI: 36 µM
[4]
  TGI: 48.7 µM
[5]
  TGI: 37 µM
[6]
  TGI: 60.2 µM
[56]
  TGI: 27.1 µM
[7]
  TGI: 32.1 µM
[8]
  TGI: 35.4 µM
[9]
  TGI: 26.1 µM
[10]
  TGI: 56.8 µM
[11]
  TGI: 30.4 µM
[12]
  TGI: 30.1 µM
[13]
  TGI: 29.3 µM
[14]
  TGI: 32.9 µM
[15]
  TGI: 32.9 µM
[16]
  TGI: 30.2 µM
[17]
  TGI: 36.1 µM
[57]
  TGI: 34.5 µM
[18]
  TGI: 40.8 µM
[19]
  TGI: 75.2 µM
[20]
  TGI: 24.7 µM
[21]
  TGI: 82.3 µM
[22]
  TGI: 51.5 µM
[23]
  TGI: 34.7 µM
[24]
  TGI: 28.5 µM
[25]
  TGI: 68.5 µM
[26]
  TGI: 73.8 µM
[27]
  TGI: 29.5 µM
[28]
  TGI: 40.2 µM
[29]
  TGI: 37.3 µM
[58]
  TGI: 27.1 µM
[31]
  TGI: 27.3 µM
[32]
  TGI: 29.4 µM
[33]
  TGI: 84.6 µM
[34]
  TGI: 8.73 µM
[35]
  TGI: 50 µM
[36]
  TGI: 38.9 µM
[37]
  TGI: 48.2 µM
[38]
  TGI: 49.9 µM
[39]
  TGI: 31.6 µM
[40]
  TGI: 41.7 µM
[41]
  TGI: 71.4 µM
[42]
  TGI: 58.1 µM
[43]
  TGI: 27 µM
[45]
  TGI: 29.3 µM
[46]
  TGI: 32.5 µM
[47]
  TGI: 33.9 µM
[48]
  TGI: 64.4 µM
[49]
  TGI: 31.8 µM
[50]
  TGI: 35.3 µM
[51]
  TGI: 31.4 µM
[52]
  TGI: 30.1 µM
[53]
  TGI: 30.3 µM
[54]
  TGI: 27 µM
[55]
  TGI: 29.7 µM
